Data on two compounds can be found in patent publication US9040261B2, “Compounds as L-cystine crystallization inhibitors and uses thereof” (NEW YORK UNIVERSITY, priority 2009, dated 2015).

Where a name gives a salt, the structure may show the parent alone.

Data set [1] can be described thus: Bulk crystallization of L-cystine in the presence of additives (mass yield). As to conditions: 2 mg/L additive, 0.7 g/L L-cystine (pH 6.8); no additive 80; approximate error ±8%. As to the method:
Alternately, the hexagonal crystals can be obtained by crystallization performed near neutral pH (Sa) The hexagonal form was crystallized from a supersaturated L-cystine solution prepared by adding 70 mg of L-cystine to 100 mL of deionized water (3 mM), and heating under reflux at 100° C. for 20 min with stirring to completely dissolve L-cystine. […] This concentration was used for bulk crystallization studies in the presence of additives so that a measurable amount of bulk crystals could be obtained in a reasonable time. The solution was then allowed to cool slowly with stirring for 75 min. 30 mL aliquots were transferred to separate glass containers, which were then sealed to prevent evaporation and exposure to airborne particulates and stored for 72 hours at room temperature without stirring. […] The crystals retrieved in this manner were used for AFM studies by mounting individual crystals according to the procedure described below.
Various proteins, poly-amino acids, and molecular mimics of L-cystine were examined as additives. The aforementioned procedure for hexagonal platelet crystallization was repeated. Following the 75 min cooling period, prior to any observable crystallization, the additive was added to the supersaturated L-cystine solution to the desired concentration. […] Crystallization without additive was performed in an identical manner for comparison using a control solution from the same batch. The mass yields of L-cystine crystals were obtained by dividing the mass of L-cystine crystals (collected from growth solution by filtration) by the mass of L-cystine added in the growth solution.
Additives chosen for these studies were various proteins, poly-amino acids, and molecular mimics of L-cystine (see Table 1). The above procedure for hexagonal platelet crystallization was repeated until completion of the 75 min cooling period, at which point 29.5 g of solution was transferred to a 100 mL beaker containing 0.5 g of separately prepared additive solution to yield net concentrations of 2 mg/L additive and 0.7 g/L L-cystine. Additive solutions were replaced with deionized water of equivalent volume for control measurements. […]
L-cystine bulk crystallization was investigated in the presence of various polymers, urinary constituents, fish antifreeze proteins (AFPs), and L-cystine derivatives (i.e. structural mimics of L-cystine), which were analyzed as possible growth inhibitors of hexagonal L-cystine. The potency of each additive was assessed by comparing the difference in crystal yield (Table 1), which is equal to the mass of crystals formed in the presence of 2 mg/L additive (isolated with […]) divided by the total mass of L-cystine (700 mg/L).

Data set [2] can be described thus: Real time in situ AFM step velocity measurements, static conditions. As to conditions: 5 g/L cystamine. The protocol: A Digital Instruments (Santa Barbara, Calif.) Nanoscope IIIa Multimode system was used for topographical and lattice imaging. All measurements were performed in contact mode using Veeco NP_B Si3N4 cantilever tips with a spring constant of 0.12N/m (triangular, 196 μm length, 41 μm width) on a glass cantilever holder, and a liquid cell was created for in situ step velocity measurements. All L-cystine crystals for AFM measurements were prepared by method 1. Crystals were transferred onto an AFM specimen disk coated with partially cured (1 hr) UV-curable optical cement (Type SK-9, EMS Acquisition Corp.) by gently pressing the disk against hexagonal platelets or L-cystine needles isolated by filtration (Whatman Nuclepore membrane, 8 μm). The (0001) face of hexagonal platelets was exposed normal to the disk for AFM analysis with growth occurring along equivalent {1010} faces in the lateral directions, while the sides of L-cystine needles were exposed normal to the disc. The partially cured polymer with adhered crystals was completely cured by additional UV radiation (2 hrs) prior to analysis. Measurements of individual step heights for hexagonal L-cystine crystals were acquired in air (contact mode) at a scan rate of 1.00 Hz and 256 samples per line over a 15×15 μm^2 surface area. Integral and proportional gains were set to the highest possible values without obtaining feedback. Four hexagonal crystals (5 areas per crystal) were analyzed for statistical step height distributions, which were calculated from >10^3 individual steps. Lattice-resolved images of crystal surfaces were acquired in water (contact mode) using a scan rate of 112 Hz over a 12×12 nm^2 area.
Real time in situ step velocity measurements of L-cystine growth were assessed along six structurally-equivalent {1010} faces of the hexagonal structure. A liquid cell was created with the glass cantilever tip holder, and working solutions were injected through a 1-mL syringe. Prior to injecting the growth medium (i.e. supersaturated L-cystine solution), crystals were etched with deionized water in the fluid cell for one hour to remove amorphous deposits or impurities that may be present on the surface. Supersaturated solutions (0.5 g/L) were generated by adding L-cystine to deionized water, boiling the solution on a heating mantle for 20 min to completely dissolve the solute, and allowing the solution to cool for 20 min on the heating mantle before transferring the solution (via syringe) to the AFM fluid cell. […]
The effect of additives on crystal growth rates was investigated. […] For each measurement, growth was first assessed in the absence of additive, then in the presence of additive on the identical area of the crystal surface to analyze relative changes in step velocity. […]

For data set [3] the following is noted: pH 7, 25° C.; cited from earlier work.

For the compound `NCCSSCCN` [Cystamine, cystamine dihydrochloride, reference compound], in data set [1], the “Yield (%) = (collected mass by filtration, >11 μm)/(total mass added) × 100%” value was 30%. In addition, the “reduction of step velocity relative to the control” value in data set [2] is 36%. Besides, the Step velocity in data set [2] (0.5 g/L L-cystine, 25° C., static, without additive ~29 nm/min, independent of step height) is 18 ± 3 nm/min.

Turning to `N[C@@H](CSSC[C@H](N)C(=O)O)C(=O)O` [L-cystine], in data set [3], the “solubility of L-cystine in water” value is 400 to 700 µM.
